Assay results taken from PMC6682311 (ChemMedChem, 2019).

Key:
[1] = system: M. smegmatis mc^2155 (ATCC 700084); assay: Broth microdilution determination of minimum inhibitory concentrations; format: cell-based, Mycobacterium smegmatis
[2] = system: M. smegmatis biofilms; assay: Biofilm inhibition assay; format: cell-based, Mycobacterium smegmatis
[3] = system: M. smegmatis biofilms; assay: Synergy dispersion assay of compound with INH/RIF on pre-formed biofilms; format: cell-based, Mycobacterium smegmatis; settings: INH 256 + RIF 128 µg mL^−1
[4] = in vitro; settings: mouse, plasma, pH 7.4
[5] = Microsome stability assay; settings: male, CD-1, mouse, microsomes, pH 7.4
[6] = in vitro; settings: male, CD-1, mouse, microsomes, pH 7.4
[7] = Table 3, trifluoromethyl 2-AIs, no unit printed for these values

Structure (SMILES)	MIC [1, 7]	fold reduction in EC50 with antibiotics versus compound alone [3]	half-life at 100 µM [4] [h]	half-life at 100 µM [5] [h]	further results
CCCCCOc1ccc(-c2nc(N)[nH]c2C(F)(F)F)cc1 [Compound 12j, 4-(4-(Pentyloxy)phenyl)-5-(trifluoromethyl)-1H-imidazol-2-amine]	200	four-fold reduction	4.8	1.02	IC50 ([2]; Table 3): 7.4 ± 0.6 µM
CCCCCCc1ccc(-c2nc(N)[nH]c2C(F)(F)F)cc1 [Compound 12g, 4-(4-Hexylphenyl)-5-(trifluoromethyl)-1H-imidazol-2-amine]		three-fold reduction	4.43	0.978	MIC ([1]; Table 2, 4,5 substituted 2-AIs, unit printed in text b20 only): >200 µM; IC50 ([2]; Table 2, highest concentration tested 50 µM): 6.8 ± 0.9 µM
CCOc1ccc(NC(C)=O)cc1 [Phenacetin]					half-life at 100 µM [6]: 0.59 h
CC(C)NCC(O)COc1cccc2ccccc12 (centres unmarked) [Propanolol, reference compound]			0.343		
CCCCOc1ccc(-c2nc(N)[nH]c2C(F)(F)F)cc1 [Compound 12i, 4-(4-Butoxyphenyl)-5-(trifluoromethyl)-1H-imidazol-2-amine]	200				
CCCOc1ccc(-c2nc(N)[nH]c2C(F)(F)F)cc1 [Compound 12h, 4-(4-Propoxyphenyl)-5-(trifluoromethyl)-1H-imidazol-2-amine]	200				
